# Reference: US10722442B2, “Skin brightening composition comprising novel ginsenoside” (AMOREPACIFIC CORPORATION, priority 2018, dated 2020)
# Experiments:
# SH-SY5Y cells = test: Cytotoxicity, Cell Counting Kit (CCK)-8; assay type: cell-based; settings: SH-SY5Y cells, 0.1, 1, 5, 10, 20, and 50 μM; up to 50 μM
# Method: The cell growth in the presence of novel ginsenoside GS #10, which is an example of the present disclosure, was evaluated using Cell Counting Kit (CCK)-8, in order to exclude the possibility that ginsenosides may affect skin brightening efficacy through cytotoxic activity.
# Specifically, the viability of SH-SY5Y cells was assessed using CCK-8 assay according to manufacturer's instructions (Dojindo, Md., USA). CCK-8, a cell viability detection reagent, was added to the cultured SH-SY5Y cells and incubated for 2 hours in a wet atmosphere. Then, absorbance was measured at 450 nm, and the cell viability was marked as a percentage (%) of the absolute optical density of each sample relative to the untreated sample. At this time, the concentration of the novel ginsenoside GS #10, which is an example of the present disclosure, contained in the medium in which the cells were cultured was 0.1, 1, 5, 10, 20, and 50 μM, respectively.
# Mel-Ab cell line = test: Melanin production inhibition (Dooley's method); assay type: cell-based, C57BL/6; settings: Mel-Ab cells, after 5 days, absorbance at 400 nm
# healthy adult subjects = test: Human repeated insult patch tests (HRIPT), skin accumulated irritation; assay type: in vivo; set-up: key to reactivity (skin response, ICDRG criteria): −: Negative (no response); ±: Suspicious or slight erythema, or the like; +: Weak reactions (without vesicles), erythema, papules; ++: Severe reactions (with vesicles), erythema, papules, vesicles; +++: Strong reaction, bulla reaction; settings: for Average reactivity: safe when less than 3
# Method: Human repeated insult patch tests (HRIPT) were performed to confirm whether the novel ginsenoside GS #10, which is an example of the present disclosure, has a skin accumulated irritation and to calculate a concentration range that can be used on the skin.
# Specifically, 15 healthy adult subjects were randomly selected, and the test composition containing 0.5 wt %, 1 wt %, and 3 wt % of the compound (the skin composition comprising an emulsifier, a stabilizer, purified water, etc. in addition to the compound) was added dropwise by 20 μl per chamber (IQ chamber, Epitest Ltd, Finland). After 24 hours from patching the upper right part of the back of a subject, it was replaced with the new patch. In this way, the skin reactions were examined before and after each patch while performing nine patches three times a week for a total of three weeks. The skin reactions were confirmed up to 48 hours after removing the final patch, and the average reactivity was obtained.
# The skin response was determined according to the criteria of the International Contact Dermatitis Research Group (ICDRG). […] This means that the novel ginsenoside GS #10, which is an example of the present disclosure, has no skin accumulated irritation and can be used safely on the skin.
# [1] = target: Mushroom-derived tyrosinase; test: Inhibitory effect of tyrosinase activity; assay type: biochemical; settings: L-tyrosine substrate, 20 minutes at 37° C., absorbance at 490 nm
# Method: In order to compare the skin brightening effects of ginsenosides isolated from the ginseng seed extract, the inhibitory effect of the tyrosinase activity was evaluated as follows. Mushroom-derived tyrosinase and tyrosine were obtained from Sigma Chemical. […] Tyrosinase activity was assessed by measuring the absorbance at 490 nm using a microplate reader (Bio-Rad 3550, Richmond, Calif., U.S.A.) after an enzyme reaction for 20 minutes at 37° C.
smiles,measurement,setting,value
"CC1(C)C(=O)CC[C@@]2(C)C1[C@@H](O[C@H]1OC(CO)[C@H](O)C(O)C1O[C@H]1OC(CO)[C@H](O)C(O)C1O)C[C@]1(C)C2C[C@@H](O)C2C([C@]3(C)CC[C@H](C(C)(C)O)O3)CC[C@]21C (stereo partly drawn) [GS#10, (20S,24R)-6-O-β-D-glucopyranosyl(1→2)-β-D-glucopyranoside-dammar-3-one-20,24-epoxy-6a,12b,25-triol]",cytotoxicity (cell viability),SH-SY5Y cells,did not exhibit cytotoxicity
same,"IC50 (ppm), concentration required to reduce melanin production in melanocytes by half",Mel-Ab cell line,22 ppm
same,"Number of subjects with ±, +, or ++ reactivity","healthy adult subjects; 0.5 wt %, Eight times, 1st line (±)",0 person
same,"Number of subjects with ±, +, or ++ reactivity","healthy adult subjects; 0.5 wt %, Eight times, 2nd line (+)",0 person
same,"Number of subjects with ±, +, or ++ reactivity","healthy adult subjects; 0.5 wt %, Eight times, 3rd line (++)",0 person
same,"Number of subjects with ±, +, or ++ reactivity","healthy adult subjects; 0.5 wt %, Five times, 1st line (±)",0 person
same,"Number of subjects with ±, +, or ++ reactivity","healthy adult subjects; 0.5 wt %, Five times, 2nd line (+)",0 person
same,"Number of subjects with ±, +, or ++ reactivity","healthy adult subjects; 0.5 wt %, Five times, 3rd line (++)",0 person
same,"Number of subjects with ±, +, or ++ reactivity","healthy adult subjects; 0.5 wt %, Four times, 1st line (±)",0 person
same,"Number of subjects with ±, +, or ++ reactivity","healthy adult subjects; 0.5 wt %, Four times, 2nd line (+)",0 person
same,"Number of subjects with ±, +, or ++ reactivity","healthy adult subjects; 0.5 wt %, Four times, 3rd line (++)",0 person
same,"Number of subjects with ±, +, or ++ reactivity","healthy adult subjects; 0.5 wt %, Nine times, 1st line (±)",0 person
same,"Number of subjects with ±, +, or ++ reactivity","healthy adult subjects; 0.5 wt %, Nine times, 2nd line (+)",0 person
same,"Number of subjects with ±, +, or ++ reactivity","healthy adult subjects; 0.5 wt %, Nine times, 3rd line (++)",0 person
same,"Number of subjects with ±, +, or ++ reactivity","healthy adult subjects; 0.5 wt %, Once, 1st line (±)",0 person
same,"Number of subjects with ±, +, or ++ reactivity","healthy adult subjects; 0.5 wt %, Once, 2nd line (+)",0 person
same,"Number of subjects with ±, +, or ++ reactivity","healthy adult subjects; 0.5 wt %, Once, 3rd line (++)",0 person
same,"Number of subjects with ±, +, or ++ reactivity","healthy adult subjects; 0.5 wt %, Seven times, 1st line (±)",0 person
same,"Number of subjects with ±, +, or ++ reactivity","healthy adult subjects; 0.5 wt %, Seven times, 2nd line (+)",0 person
same,"Number of subjects with ±, +, or ++ reactivity","healthy adult subjects; 0.5 wt %, Seven times, 3rd line (++)",0 person
same,"Number of subjects with ±, +, or ++ reactivity","healthy adult subjects; 0.5 wt %, Six times, 1st line (±)",0 person
same,"Number of subjects with ±, +, or ++ reactivity","healthy adult subjects; 0.5 wt %, Six times, 2nd line (+)",0 person
same,"Number of subjects with ±, +, or ++ reactivity","healthy adult subjects; 0.5 wt %, Six times, 3rd line (++)",0 person
same,"Number of subjects with ±, +, or ++ reactivity","healthy adult subjects; 0.5 wt %, Three times, 1st line (±)",0 person
same,"Number of subjects with ±, +, or ++ reactivity","healthy adult subjects; 0.5 wt %, Three times, 2nd line (+)",0 person
same,"Number of subjects with ±, +, or ++ reactivity","healthy adult subjects; 0.5 wt %, Three times, 3rd line (++)",0 person
same,Average reactivity,healthy adult subjects; 0.5 wt %,0
same,"Number of subjects with ±, +, or ++ reactivity","healthy adult subjects; 0.5 wt %, twice, 1st line (±)",0 person
same,"Number of subjects with ±, +, or ++ reactivity","healthy adult subjects; 0.5 wt %, twice, 2nd line (+)",0 person
same,"Number of subjects with ±, +, or ++ reactivity","healthy adult subjects; 0.5 wt %, twice, 3rd line (++)",0 person
same,"Number of subjects with ±, +, or ++ reactivity","healthy adult subjects; 1 wt %, Eight times, 1st line (±)",0 person
same,"Number of subjects with ±, +, or ++ reactivity","healthy adult subjects; 1 wt %, Eight times, 2nd line (+)",0 person
same,"Number of subjects with ±, +, or ++ reactivity","healthy adult subjects; 1 wt %, Eight times, 3rd line (++)",0 person
same,"Number of subjects with ±, +, or ++ reactivity","healthy adult subjects; 1 wt %, Five times, 1st line (±)",0 person
same,"Number of subjects with ±, +, or ++ reactivity","healthy adult subjects; 1 wt %, Five times, 2nd line (+)",0 person
same,"Number of subjects with ±, +, or ++ reactivity","healthy adult subjects; 1 wt %, Five times, 3rd line (++)",0 person
same,"Number of subjects with ±, +, or ++ reactivity","healthy adult subjects; 1 wt %, Four times, 1st line (±)",0 person
same,"Number of subjects with ±, +, or ++ reactivity","healthy adult subjects; 1 wt %, Four times, 2nd line (+)",0 person
same,"Number of subjects with ±, +, or ++ reactivity","healthy adult subjects; 1 wt %, Four times, 3rd line (++)",0 person
same,"Number of subjects with ±, +, or ++ reactivity","healthy adult subjects; 1 wt %, Nine times, 1st line (±)",0 person
same,"Number of subjects with ±, +, or ++ reactivity","healthy adult subjects; 1 wt %, Nine times, 2nd line (+)",0 person
same,"Number of subjects with ±, +, or ++ reactivity","healthy adult subjects; 1 wt %, Nine times, 3rd line (++)",0 person
same,"Number of subjects with ±, +, or ++ reactivity","healthy adult subjects; 1 wt %, Once, 1st line (±)",0 person
same,"Number of subjects with ±, +, or ++ reactivity","healthy adult subjects; 1 wt %, Once, 2nd line (+)",0 person
same,"Number of subjects with ±, +, or ++ reactivity","healthy adult subjects; 1 wt %, Once, 3rd line (++)",0 person
same,"Number of subjects with ±, +, or ++ reactivity","healthy adult subjects; 1 wt %, Seven times, 1st line (±)",0 person
same,"Number of subjects with ±, +, or ++ reactivity","healthy adult subjects; 1 wt %, Seven times, 2nd line (+)",0 person
same,"Number of subjects with ±, +, or ++ reactivity","healthy adult subjects; 1 wt %, Seven times, 3rd line (++)",0 person
same,"Number of subjects with ±, +, or ++ reactivity","healthy adult subjects; 1 wt %, Six times, 1st line (±)",0 person
same,"Number of subjects with ±, +, or ++ reactivity","healthy adult subjects; 1 wt %, Six times, 2nd line (+)",0 person
same,"Number of subjects with ±, +, or ++ reactivity","healthy adult subjects; 1 wt %, Six times, 3rd line (++)",0 person
same,"Number of subjects with ±, +, or ++ reactivity","healthy adult subjects; 1 wt %, Three times, 1st line (±)",0 person
same,"Number of subjects with ±, +, or ++ reactivity","healthy adult subjects; 1 wt %, Three times, 2nd line (+)",0 person
same,"Number of subjects with ±, +, or ++ reactivity","healthy adult subjects; 1 wt %, Three times, 3rd line (++)",0 person
same,Average reactivity,healthy adult subjects; 1 wt %,0
same,"Number of subjects with ±, +, or ++ reactivity","healthy adult subjects; 1 wt %, twice, 1st line (±)",0 person
same,"Number of subjects with ±, +, or ++ reactivity","healthy adult subjects; 1 wt %, twice, 2nd line (+)",0 person
same,"Number of subjects with ±, +, or ++ reactivity","healthy adult subjects; 1 wt %, twice, 3rd line (++)",0 person
same,"Number of subjects with ±, +, or ++ reactivity","healthy adult subjects; 3 wt %, Eight times, 1st line (±)",0 person
same,"Number of subjects with ±, +, or ++ reactivity","healthy adult subjects; 3 wt %, Eight times, 2nd line (+)",0 person
same,"Number of subjects with ±, +, or ++ reactivity","healthy adult subjects; 3 wt %, Eight times, 3rd line (++)",0 person
same,"Number of subjects with ±, +, or ++ reactivity","healthy adult subjects; 3 wt %, Five times, 1st line (±)",0 person
same,"Number of subjects with ±, +, or ++ reactivity","healthy adult subjects; 3 wt %, Five times, 2nd line (+)",0 person
same,"Number of subjects with ±, +, or ++ reactivity","healthy adult subjects; 3 wt %, Five times, 3rd line (++)",0 person
same,"Number of subjects with ±, +, or ++ reactivity","healthy adult subjects; 3 wt %, Four times, 1st line (±)",0 person
same,"Number of subjects with ±, +, or ++ reactivity","healthy adult subjects; 3 wt %, Four times, 2nd line (+)",0 person
same,"Number of subjects with ±, +, or ++ reactivity","healthy adult subjects; 3 wt %, Four times, 3rd line (++)",0 person
same,"Number of subjects with ±, +, or ++ reactivity","healthy adult subjects; 3 wt %, Nine times, 1st line (±)",0 person
same,"Number of subjects with ±, +, or ++ reactivity","healthy adult subjects; 3 wt %, Nine times, 2nd line (+)",0 person
same,"Number of subjects with ±, +, or ++ reactivity","healthy adult subjects; 3 wt %, Nine times, 3rd line (++)",0 person
same,"Number of subjects with ±, +, or ++ reactivity","healthy adult subjects; 3 wt %, Once, 1st line (±)",0 person
same,"Number of subjects with ±, +, or ++ reactivity","healthy adult subjects; 3 wt %, Once, 2nd line (+)",0 person
same,"Number of subjects with ±, +, or ++ reactivity","healthy adult subjects; 3 wt %, Once, 3rd line (++)",0 person
same,"Number of subjects with ±, +, or ++ reactivity","healthy adult subjects; 3 wt %, Seven times, 1st line (±)",0 person
same,"Number of subjects with ±, +, or ++ reactivity","healthy adult subjects; 3 wt %, Seven times, 2nd line (+)",0 person
same,"Number of subjects with ±, +, or ++ reactivity","healthy adult subjects; 3 wt %, Seven times, 3rd line (++)",0 person
same,"Number of subjects with ±, +, or ++ reactivity","healthy adult subjects; 3 wt %, Six times, 1st line (±)",0 person
same,"Number of subjects with ±, +, or ++ reactivity","healthy adult subjects; 3 wt %, Six times, 2nd line (+)",0 person
same,"Number of subjects with ±, +, or ++ reactivity","healthy adult subjects; 3 wt %, Six times, 3rd line (++)",0 person
same,"Number of subjects with ±, +, or ++ reactivity","healthy adult subjects; 3 wt %, Three times, 1st line (±)",0 person
same,"Number of subjects with ±, +, or ++ reactivity","healthy adult subjects; 3 wt %, Three times, 2nd line (+)",0 person
same,"Number of subjects with ±, +, or ++ reactivity","healthy adult subjects; 3 wt %, Three times, 3rd line (++)",0 person
same,Average reactivity,healthy adult subjects; 3 wt %,0
same,"Number of subjects with ±, +, or ++ reactivity","healthy adult subjects; 3 wt %, twice, 1st line (±)",0 person
same,"Number of subjects with ±, +, or ++ reactivity","healthy adult subjects; 3 wt %, twice, 2nd line (+)",0 person
same,"Number of subjects with ±, +, or ++ reactivity","healthy adult subjects; 3 wt %, twice, 3rd line (++)",0 person
same,"reactivity (skin response, ICDRG criteria)","healthy adult subjects; all content range (0.5 wt %, 1 wt %, 3 wt %), nine patches in three weeks",−
same,"IC50 (ppm), inhibitory effect of tyrosinase activity",[1],15 ppm
